For the assay, the target named is CB1 (mutant) (Homo sapiens, UniProt P21554). The experiment in a line: R-SAT functional receptor assay, CB1 (mutant, truncated after amino acid 417). Format: cell-based. As to conditions: R-SAT CB1; for IC50: receptor form (mutant or wild-type) not stated.
[1] abbreviates: Appendix A, read-out: pIC50 (converted).
The mark [2] stands for this setting: Appendix A, receptor form not stated, relative to SR141716 (100%), read-out: % Inhibition.

Where two headings read alike, the source gives them in different places.

Sequence of CB1 (mutant) (P21554 1-417, change not shown): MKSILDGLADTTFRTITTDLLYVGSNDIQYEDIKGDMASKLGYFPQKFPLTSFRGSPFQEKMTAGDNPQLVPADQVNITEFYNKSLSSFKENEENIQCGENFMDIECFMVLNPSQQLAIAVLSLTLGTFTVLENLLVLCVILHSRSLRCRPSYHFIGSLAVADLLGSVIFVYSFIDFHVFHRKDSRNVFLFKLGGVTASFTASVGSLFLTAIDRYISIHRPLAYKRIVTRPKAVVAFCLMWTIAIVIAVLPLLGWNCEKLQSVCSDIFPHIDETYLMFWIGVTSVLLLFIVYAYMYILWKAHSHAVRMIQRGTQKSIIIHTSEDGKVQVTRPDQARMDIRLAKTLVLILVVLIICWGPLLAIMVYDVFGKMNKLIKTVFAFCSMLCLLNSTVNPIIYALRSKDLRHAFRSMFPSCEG

For `CONC(=O)c1ccc2c(c1)N=C(c1ccc(Br)cc1)c1ccccc1S2`, under setting [1], the IC50 was 794 nM. Besides, the Emax under setting [2] was determined as 68%.

Consider `CC(CNC(=O)c1ccc2c(c1)N=C(N1CCCCC1)c1cc(F)ccc1S2)c1ccccc1` (centres unmarked) [drawing 1171], for which the IC50 under setting [1] was 39.8 nM. Moreover, under setting [2], the Emax came out at 102%.

As for `CCOC(=O)c1ccc(C2=Nc3cc(C(=O)NCc4ccccn4)ccc3Sc3ccccc32)cc1` [drawing 874], under setting [1], the IC50 is 200 nM. The Emax under setting [2] was found to be 100%.

On to `O=C(NN1CCCCC1)c1ccc2c(c1)N=C(c1ccc(Br)cc1)c1ccccc1S2` [drawing 993], for which the IC50 under setting [1] is 25.1 nM. Further, the Emax under setting [2] amounted to 92%.

For the compound `O=C(NCc1ccc(F)cc1)c1ccc2c(c1)N=C(N1CCCCC1)c1ccccc1S2` [drawing 611], the IC50 under setting [1] was 3.98 nM. For the same compound, the Emax under setting [2] was 80%.

For `O=C(NNC(=O)c1ccc2c(c1)N=C(c1ccc(Cl)cc1)c1ccccc1S2)c1ccccc1`, the IC50 under setting [1] was 398 nM. Further, the Emax under setting [2] was 71%.

Consider `CCCC1=Nc2cc(C(=O)NCc3ccc(F)cc3)ccc2Sc2ccccc21` [drawing 787], for which the IC50 under setting [1] was 10 nM. The Emax under setting [2] was found to be 107%.

In the case of `CCCCNC(=O)c1ccc2c(c1)N=C(c1ccc(F)cn1)c1ccccc1S2` [drawing 709], the IC50 under setting [1] is 7.94 nM. Under setting [2], the Emax is 101%.

Consider `COCCNC(=O)c1ccc2c(c1)N=C(c1sccc1C)c1ccccc1S2`, for which the IC50 under setting [1] was 63.1 nM. Further, the Emax under setting [2] came out at 88%.

As for `O=C(NC1CCCC1)c1ccc2c(c1)N=C(c1ccccc1Cl)c1ccccc1S2`, the IC50 under setting [1] is 794 nM. Further, the Emax under setting [2] came to 59%.

With `O=C(NCc1cccnc1)c1ccc2c(c1)N=C(c1ccccc1F)c1ccccc1S2` [drawing 1035], under setting [1], the IC50 is 25.1 nM. For the same compound, under setting [2], the Emax worked out at 114%.

Regarding `O=C(NN1CCOCC1)c1ccc2c(c1)N=C(c1ccc(F)cc1)c1ccccc1S2`, the IC50 under setting [1] was 631 nM. Further, under setting [2], the Emax came to 77%.

As to `CCCC1=Nc2cc(C(=O)NCCC3=CCCCC3)ccc2Sc2ccccc21`, under setting [1], the IC50 is 50.1 nM. For the same compound, the Emax under setting [2] was determined as 118%.

As to `O=C(NCCC(F)(F)F)c1ccc2c(c1)N=C(c1ccc(F)cc1)c1ccccc1S2` [drawing 827], the IC50 under setting [1] was 12.6 nM. Moreover, the Emax under setting [2] worked out at 98%.

With `CC(C)CNC(=O)c1ccc2c(c1)N=C(c1ccccc1F)c1ccccc1S2` [drawing 627], the IC50 under setting [1] is 5.01 nM. For the same compound, the Emax under setting [2] came to 118%.

For `CCCC1=Nc2cc(C(=O)NCCCN3CCN(C)CC3)ccc2Sc2ccccc21`, the IC50 under setting [1] was 2510 nM. For the same compound, the Emax under setting [2] was found to be 120%.

Regarding `CCCCNC(=O)c1ccc2c(c1)N=C(c1ccccc1Cl)c1ccccc1S2`, the Emax under setting [2] is 89%.

Regarding `O=C(NCc1ccccc1Cl)c1ccc2c(c1)N=C(C1CCCCC1)c1ccccc1S2` [drawing 1059], the IC50 under setting [1] is 31.6 nM. In addition, the Emax under setting [2] amounted to 91%.

In the case of `Cc1cccnc1C1=Nc2cc(C(=O)NC3CCCC3)ccc2Sc2ccccc21`, the IC50 under setting [1] was 1000 nM. Also, the Emax under setting [2] is 57%.

For `O=C(NCc1ccncc1)c1ccc2c(c1)N=C(c1ccc(F)cc1)c1ccccc1S2` [drawing 716], the IC50 under setting [1] is 79.4 nM. Moreover, the Emax under setting [2] stood at 101%.

For `CC(CNC(=O)c1ccc2c(c1)N=C(N1CCCCC1)c1ccccc1S2)c1ccccc1` (centres unmarked) [drawing 1017], the IC50 under setting [1] is 25.1 nM. Under setting [2], the Emax stood at 105%.

Take `O=C(NN1CCCCC1)c1ccc2c(c1)N=C(C1CCCCC1)c1ccccc1S2` [drawing 744]: under “read-out: % Inhibition, Appendix A, receptor form not stated, relative to SR141716 (100%)”, the Emax was 86%.

As for `O=C(NCCc1ccccc1)c1ccc2c(c1)N=C(N1CCCCC1)c1ccccc1S2` [drawing 1019], the IC50 under setting [1] was 25.1 nM. Besides, the Emax under setting [2] was 106%.

Consider `CCCNC(=O)c1ccc2c(c1)N=C(c1cccc(F)c1)c1ccccc1S2` [drawing 893], for which the IC50 under setting [1] was 15.8 nM. Further, under setting [2], the Emax is 109%.

Take `O=C(Cc1ccccc1)NNC(=O)c1ccc2c(c1)N=C(c1ccc(Cl)cc1)c1ccccc1S2` [drawing 588]: under setting [1], the IC50 is 50.1 nM. The Emax under setting [2] was found to be 85%.

Turning to `CC(C)CNC(=O)c1ccc2c(c1)N=C(c1ccccc1Cl)c1ccccc1S2`, the Emax under setting [2] turned out to be 86%.

With `O=C(NN1CCCCC1)c1ccc2c(c1)N=C(c1ccc(F)cc1)c1ccccc1S2` [drawing 680], under setting [2], the Emax came to 84%.

For the compound `CCCC1=Nc2cc(C(=O)NCCN3CCN(c4cccc(Cl)c4)CC3)ccc2Sc2ccccc21`, the Emax under setting [2] was 76%.

`Cc1ccsc1C1=Nc2cc(C(=O)NCCc3cccnc3)ccc2Sc2ccccc21` [drawing 694]: the IC50 under setting [1] is 63.1 nM. Further, under setting [2], the Emax stood at 121%.

With `O=C(NCc1ccccc1Cl)c1ccc2c(c1)N=C(c1ccccc1F)c1ccccc1S2` [drawing 622], the Emax under setting [2] is 72%. Also, the IC50 (pIC50, Appendix A) was 63.1 nM.

For the compound `O=C(NCc1ccco1)c1ccc2c(c1)N=C(c1ccc(F)cc1)c1ccccc1S2` [drawing 689], under setting [1], the IC50 was 6.31 nM. The Emax under setting [2] is 104%.

Turning to `CCCC1=Nc2cc(C(=O)NCc3ccccc3OC)ccc2Sc2ccccc21`, under setting [2], the Emax was 91%. This compound also gave an IC50 (pIC50, Appendix A) of 63.1 nM.

For `O=C(NCCc1ccccn1)c1ccc2c(c1)N=C(c1ccc(Cl)cc1)c1ccccc1S2` [drawing 1049], under setting [1], the IC50 was 31.6 nM. The Emax under setting [2] worked out at 93%.

Regarding `Cc1ccsc1C1=Nc2cc(C(=O)NCc3ccncc3)ccc2Sc2ccccc21`, the IC50 under setting [1] is 158 nM. Further, the Emax under setting [2] worked out at 92%.

Consider `Cc1cc(Cl)ccc1C1=Nc2cc(C(=O)NC3CCCCC3)ccc2Sc2ccccc21`, for which, under setting [1], the IC50 was 251 nM. Further, under setting [2], the Emax was found to be 83%.

With `O=C(NCCc1cccnc1)c1ccc2c(c1)N=C(c1ccc(Cl)c(Cl)c1)c1ccccc1S2` [drawing 825], under setting [1], the IC50 is 12.6 nM. Besides, under setting [2], the Emax came to 104%.

On to `CCCCC1=Nc2cc(C(=O)NN3CCCCC3)ccc2Sc2ccccc21`, for which the IC50 under setting [1] is 316 nM. The Emax under setting [2] is 82%.

In the case of `O=C(NCc1cccc(Cl)c1)c1ccc2c(c1)N=C(C1CCCCC1)c1ccccc1S2` [drawing 637], the IC50 under setting [1] is 5.01 nM. For the same compound, the Emax under setting [2] was 112%.

On to `CCCCN(C)C(=O)c1ccc2c(c1)N=C(c1ccc(Cl)s1)c1ccccc1S2`, for which the IC50 under setting [1] was 100 nM. For the same compound, under setting [2], the Emax was 87%.

Consider `O=C(NCc1cccnc1)c1ccc2c(c1)N=C(c1ccc(Cl)c(Cl)c1)c1ccccc1S2` [drawing 669], for which, under setting [1], the IC50 is 6.31 nM. For the same compound, under setting [2], the Emax stood at 107%.

In the case of `O=C(NCc1ccccn1)c1ccc2c(c1)N=C(c1cccc(Br)c1)c1ccccc1S2` [drawing 891], under setting [1], the IC50 was 15.8 nM. In addition, the Emax under setting [2] turned out to be 85%.

For the compound `CCCC1=Nc2cc(C(=O)NCCCN3CCOCC3)ccc2Sc2ccccc21`, the IC50 under setting [1] is 316 nM. Also, under setting [2], the Emax was 98%.

Consider `CCCC1=Nc2cc(C(=O)NC(C)c3ccccc3)ccc2Sc2ccccc21` (centres unmarked), for which the IC50 under setting [1] was 63.1 nM. Besides, under setting [2], the Emax is 97%.

`CC(CNC(=O)c1ccc2c(c1)N=C(C1CCCCC1)c1ccccc1S2)c1ccccc1` (centres unmarked) [drawing 783]: under setting [1], the IC50 was 10 nM. For the same compound, the Emax under setting [2] is 100%.

Consider `O=C(NCCCC(F)(F)F)c1ccc2c(c1)N=C(c1cccc(F)c1)c1ccccc1S2` [drawing 547], for which the IC50 under setting [1] is 1 nM. Under setting [2], the Emax is 100%.

In the case of `CCN(CCNC(=O)c1ccc2c(c1)N=C(c1cccc(Cl)c1)c1ccccc1S2)c1ccccc1` [drawing 713], the Emax under setting [2] turned out to be 97%. The IC50 (pIC50, Appendix A) was 7.94 nM.

On to `CCCC1=Nc2cc(C(=O)NCc3ccc4c(c3)OCO4)ccc2Sc2ccc(C)cc21`, for which the IC50 under setting [1] is 1580 nM. The Emax under setting [2] was 77%.

For orientation: % Inhibition means the relative decrease from the control value, in per cent. Consider `CC(C)CNC(=O)c1ccc2c(c1)N=C(c1cccc(Cl)c1)c1ccccc1S2` [drawing 565], for which the “% Inhibition” value (Appendix A, receptor form not stated, relative to SR141716 (100%)) is reported as 105%.

On to `O=C(NCc1ccncc1)c1ccc2c(c1)N=C(c1cccc(F)c1)c1ccccc1S2`, for which, under setting [1], the IC50 is 50.1 nM. Also, the Emax under setting [2] was determined as 95%.

Turning to `O=C(NN1CCCCCC1)c1ccc2c(c1)N=C(c1ccccc1F)c1ccccc1S2` [drawing 578], the IC50 under setting [1] is 50.1 nM. Moreover, under setting [2], the Emax came to 87%.

On to `C[C@@H]1CCC[C@H](C)N1NC(=O)c1ccc2c(c1)N=C(c1ccc(Cl)cc1)c1ccccc1S2` [drawing 1133], for which the IC50 under setting [1] was 39.8 nM. Besides, under setting [2], the Emax is 96%.

`O=C(NN1CCCCC1)c1ccc2c(c1)N=C(c1cccc(Cl)c1)c1ccccc1S2` [drawing 1127]: the IC50 under setting [1] was 39.8 nM. The Emax under setting [2] was found to be 106%.

Turning to `O=C(NCc1cccnc1)c1ccc2c(c1)N=C(c1ccccn1)c1ccccc1S2`, the IC50 under setting [1] was 316 nM. Also, the Emax under setting [2] was determined as 67%.

With `O=C(NN1CCCCC1)c1ccc2c(c1)N=C(c1cccc(Br)c1)c1ccccc1S2` [drawing 723], the Emax under setting [2] came out at 92%. The IC50 (pIC50, Appendix A) was 7.94 nM.

Turning to `CN1c2ccc(C(=O)NCc3ccc(F)cc3)cc2N=C(c2ccc(F)cc2)c2ccccc21` [drawing 752], the IC50 under setting [1] is 79.4 nM. For the same compound, under setting [2], the Emax was 91%.

For `O=C(NCc1ccc(F)cc1)c1ccc2c(c1)N=C(c1ccc(Cl)cc1)c1ccccc1S2` [drawing 589], the IC50 under setting [1] is 3.16 nM. Moreover, the Emax under setting [2] turned out to be 106%.

With `COCCNC(=O)c1ccc2c(c1)N=C(c1ccc(Cl)cc1F)c1ccccc1S2`, the IC50 under setting [1] is 63.1 nM. In addition, under setting [2], the Emax was 104%.

Regarding `CCCC1=Nc2cc(C(=O)NCC(C)c3ccccc3)ccc2Sc2ccccc21` (centres unmarked) [drawing 735], the IC50 under setting [1] was 7.94 nM. The Emax under setting [2] is 104%.

On to `CCCC1=Nc2cc(C(=O)NCCN3CCN(c4cccc(C)c4C)CC3)ccc2Sc2ccccc21`, for which the IC50 under setting [1] was 3160 nM. Besides, the Emax under setting [2] was determined as 84%.

On to `CCCC1=Nc2cc(C(=O)NC3CCN(C(=O)OCC)CC3)ccc2Sc2ccccc21`, for which the IC50 under setting [1] was 251 nM. Further, under setting [2], the Emax is 77%.

Turning to `CCCCNC(=O)c1ccc2c(c1)N=C(c1cccc(Cl)c1)c1cc(F)ccc1S2` [drawing 829], under setting [1], the IC50 is 12.6 nM. Moreover, the Emax under setting [2] was found to be 105%.

(Values after patent US20080090805A1, “CB-1 MODULATING COMPOUNDS AND THEIR USE” (ACADIA PHARMACEUTICALS INC., priority 2005, published 2008).)
